pEC50: −log10 of the molar value.
Molecular target: mGluR4 (UniProt Q14833)
Experiment: mGluR4 potentiation assay (fluorescence, Ca2+ or thallium/GIRK readout; EC20 agonist)
Format: cell-based, human / rat
Settings: half maximal effective concentration for mGluR4 potentiation; species of receptor not given
Description: The disclosed compounds and compositions can be evaluated for their ability to act as a potentiator of metabotropic glutamate receptor activity, in particular mGluR4 activity, by any suitable known methodology known in the art. For example, Chinese Hamster Ovary (CHO) cells transfected with human mGluR4 or HEK cells co-transfected with rat mGluR4 and the G-protein regulated Inwardly Rectifying Potassium channel (GIRK) were plated in clear bottom assay plates for assay in a Hamamatsu FDSS Fluorometric Plate Reader. The cells were loaded with either a Ca2+-sensitive fluorescent dye or the thallium responsive dye and the plates were washed and placed into a suitable kinetic plate reader. For human mGluR4 assays, a fluorescence baseline was established for 3-5 seconds, the disclosed compounds were then added to the cells, and the response in cells was measured. Approximately two and a half minutes later, a concentration of mGluR4 orthosteric agonist (e.g. glutamate or L-AP4) eliciting approximately 20% (EC20) of the maximal agonist response was added to the cells, and the response was measured. Two minutes later, a concentration of mGluR4 agonist (e.g. glutamate or L-AP4) eliciting 80% (EC80) of the maximal agonist response was added to the cells, and the response was measured. For rat mGluR4/GIRK experiments, a baseline was established for approximately five seconds, disclosed compounds were added, and either an EC20 or EC80 concentration of agonist was added approximately two and one half minutes later. Potentiation of the agonist response of mGluR4 by the disclosed compounds was observed as an increase in response to the EC20 concentration of agonist in the presence of compound compared to the response to agonist in the absence of compound. Similarly, antagonism of the agonist response of mGluR4 by the disclosed compounds was observed as a decrease in response to the EC80 concentration of agonist in the presence of compound compared to the response to agonist in the absence of compound.
The above described assay operated in two modes. In the first mode, a range of concentrations of the disclosed compounds are added to cells, followed by a single fixed concentration of agonist. If the compound acts as a potentiatior, an EC50 value for potentiation and a maximum extent of potentiation by the compound at this concentration of agonist is determined by non-linear curve fitting. If the compound acts as a noncompetitive antagonist, an IC50 value is determined by non-linear curve fitting. In the second mode, several fixed concentrations of the disclosed compounds are added to various wells on a plate, followed by a range in concentrations of agonist for each concentration of disclosed compound. The EC50 values for the agonist at each concentration of compound are determined by non-linear curve fitting. A decrease in the EC50 value of the agonist with increasing concentrations of the sample compound (a leftward shift of the agonist concentration-response curve) is an indication of the degree of mGluR4 potentiation at a given concentration of the sample compound. A decrease in the maximal response of the agonist with increasing concentrations of the sample compounds, with or without a rightward shift in agonist potency, is an indication of the degree of noncompetitive antagonism at mGluR4. The second mode also indicates whether the sample compounds also affect the maximum response to mGluR4 to agonists.

| pEC50 | Structure (SMILES) |
| --- | --- |
| 5.83 | O=C(Nc1ccc(N2C(=O)C3COCCN3C2=S)c(Cl)c1)c1cccc(Cl)n1 (centres unmarked) [Example 1.3.32, 6-Chloro N-(3-chloro-4-(1-oxo-3-thioxodihydro-1H-imidazo[5,1-c][1,4]oxazin-2(3H,8H, 8aH)-yl)phenyl)picolinamide] |
| 5.07 | O=C(Nc1ccc(N2C(=O)C3COCCN3C2=S)c(Cl)c1)c1cccs1 (centres unmarked) [Example 1.3.33, N-(3-Chloro-4-(1-oxo-3-thioxodihydro-1H-imidazo[5,1-c][1,4]oxazin-2(3H,8H,8aH)-yl)phenyl)thiophene-2-carboxamide] |
| 5.93 | O=C(Nc1ccc(N2C(=O)C3COCCN3C2=S)c(Cl)c1)c1nccs1 (centres unmarked) [Example 1.3.34, N-(3-Chloro-4-(1-oxo-3-thioxodihydro-1H-imidazo[5,1-c][1,4]oxazin-2(3H,8H,8aH)-yl)phenyl)thiazole-2-carboxamide] |
| 5.83 | O=C(Nc1ccc(N2C(=O)C3COCCN3C2=S)c(Cl)c1)c1cscn1 (centres unmarked) [Example 1.3.35, N-(3-Chloro-4-(1-oxo-3-thioxodihydro-1H-imidazo[5,1-c][1,4]oxazin-2(3H,8H,8aH)-yl)phenyl)thiazole-4-carboxamide] |
| 5.77 | O=C(Nc1ccc(N2C(=O)C3COCCN3C2=S)c(Cl)c1)c1ncc(F)cc1F (centres unmarked) [Example 1.3.36, N-(3-Chloro-4-(1-oxo-3-thioxodihydro-1H-imidazo[5,1-c][1,4]oxazin-2(3H, 8H,8aH)-yl)phenyl)-3,5-difluoropicolinamide] |
| 5.30 | O=C(Nc1ccc(N2C(=O)C3COCCN3C2=S)c(Cl)c1)c1ccc(Cl)o1 (centres unmarked) [Example 1.3.37, 5-Chloro-N-(3-chloro-4-(1-oxo-3-thioxodihydro-1H-imidazo[5,1-c][1,4]oxazin-2(3H, 8H,8aH)-yl)phenyl)-furan-2-carboxamide] |
| 6.03 | O=C(Nc1ccc(N2C(=O)C3COCCN3C2=S)c(Cl)c1)c1cccc(F)n1 (centres unmarked) [Example 1.3.38, N-(3-Chloro-4-(1-oxo-3-thioxodihydro-1H-imidazo[5,1-c][1,4]oxazin-2(3H, 8H,8aH)-yl)phenyl)-6-fluoropicolinamide] |
| 5.92 | O=C(Nc1ccc(N2C(=O)C3COCCN3C2=S)c(Cl)c1)c1ncccc1F (centres unmarked) [Example 1.3.39, N-(3-Chloro-4-(1-oxo-3-thioxodihydro-1H-imidazo[5,1-c][1,4]oxazin-2(3H, 8H,8aH)-yl)phenyl)-3-fluoropicolinamide] |
| 6.39 | O=C(Nc1ccc(N2C(=O)C3CSCCN3C2=O)c(Cl)c1)c1ccccn1 (centres unmarked) [Example 1.3.40, N-(3-chloro-4-(1,3-dioxodihydro-1H-imidazo[5,1-c][1,4]thiazin-2(3H,8H,8aH)-yl)phenyl)picolinamide] |
| 5.52 | O=C(Nc1ccc(N2C(=O)C3CS(=O)(=O)CCN3C2=O)c(Cl)c1)c1ccccn1 (centres unmarked) [Example 1.3.41, N-(3-chloro-4-(1,3-dioxodihydro-1H-imidazo[5,1-c][1,4]dioxothiazin-2(3H,8H,8aH)-yl)phenyl)picolinamide] |
| 5.93 | O=C(Nc1ccc(N2C(=O)C3CSCCN3C2=O)c(Cl)c1)c1cccc(F)n1 (centres unmarked) [Example 1.3.42, N-(3-chloro-4-(1,3-dioxodihydro-1H-imidazo[5,1-c][1,4]thiazin-2(3H,8H,8aH)-yl)phenyl)-6-fluoropicolinamide] |
| 5.42 | O=C(Nc1ccc(N2C(=O)C3CSCCN3C2=O)c(Cl)c1)c1cscn1 (centres unmarked) [Example 1.3.43, N-(3-chloro-4-(1,3-dioxodihydro-1H-imidazo[5,1-c][1,4]thiazin-2(3H,8H,8aH)-yl)phenyl)thiazole-4-carboxamide] |
| 6.12 | CC(C)(C)OC(=O)N1CCN2C(=O)N(c3ccc(NC(=O)c4ccccn4)cc3Cl)C(=O)C2C1 (centres unmarked) [Example 1.3.44, tert-butyl-2-(2-chloro-4-(picolinamide)phenyl)-1,3-dioxohexahydroimidazo[1,5-a]pyrazine-7(1H)-carboxylate] |
| 5.38 | O=C(Nc1ccc(N2C(=O)C3CNCCN3C2=O)c(Cl)c1)c1ccccn1 (centres unmarked) [Example 1.3.45] |
| 5.33 | CS(=O)(=O)N1CCN2C(=O)N(c3ccc(NC(=O)c4ccccn4)cc3Cl)C(=O)C2C1 (centres unmarked) [Example 1.3.47, N-(3-chloro-4-(7-(methylsulfonyl)-1,3-dioxotetrahydroimidazo[1,5-a]pyrazin-2(1H,3H,5H)-yl)phenyl)picolinamide] |
| 6.36 | CC12CCCCN1C(=O)N(c1ccc(NC(=O)c3ccccn3)cc1Cl)C2=O (centres unmarked) [Example 1.3.48, N-(3-chloro-4-(8a-methyl-1,3-dioxohexahydroimidazo[1,5-a]pyridin-2(3H)-yl)phenyl)picolinamide] |
| 6.73 | CC12CCCCN1C(=S)N(c1ccc(NC(=O)c3ccccn3)cc1Cl)C2=O (centres unmarked) [Example 1.3.49, N-(3-chloro-4-(8a-methyl-1-oxo-3-thioxohexahydroimidazo[1,5-a]pyridin-2(3H)-yl)phenyl)picolinamide] |
| 6.34 | O=C(Nc1ccc(N2C(=O)NC3(CCCCC3)C2=O)c(C(F)(F)F)c1)c1ccccn1 [Example 1.3.50, N-(4-(2,4-dioxo-1,3-diazaspiro[4.5]decan-3-yl)-3-(trifluoromethyl)phenyl)picolinamide] |
| 5.67 | O=C(Nc1ccc(N2C(=O)NC3(CCC(c4ccccc4)CC3)C2=O)c(Cl)c1)c1ccccn1 (centres unmarked) [Example 1.3.51, N-(3-chloro-4-(2,4-dioxo-8-phenyl-1,3-diazaspiro[4.5]decan-3-yl)phenyl)picolinamide] |
| 6.75 | CN1C(=O)N(c2ccc(NC(=O)c3ccccn3)cc2Cl)C(=O)C12CCCCC2 [Example 1.3.52, N-(3-chloro-4-(1-methyl-2,4-dioxo-1,3-diazaspiro[4.5]decan-3-yl)phenyl)picolinamide] |
| 6.66 | O=C(Nc1ccc(N2C(=O)NC3(CC4CCC3C4)C2=O)c(Cl)c1)c1ccccn1 (centres unmarked) [Example 1.3.53, N-(3-chloro-4-(2′,5′-dioxospiro[bicyclo[2.2.1]heptane-2,4′-imidazolidin]-1′-yl)phenyl)picolinamide] |
| 6.49 | CN1C(=O)N(c2ccc(NC(=O)c3ccccn3)cc2Cl)C(=O)C12CC1CCC2C1 (centres unmarked) [Example 1.3.54, N-(3-chloro-4-(3′-methyl-2′,5′-dioxospiro[bicyclo[2.2.1]heptane-2,4′-imidazolidin]-1′-yl)phenyl)picolinamide] |
| 5.39 | O=C(Nc1ccc(N2C(=O)NC3(CCCCC3)C2=O)c(C(F)(F)F)c1)c1ccco1 [Example 1.3.55, N-(4-(2,4-dioxo-1,3-diazaspiro[4.5]decan-3-yl)-3-(trifluoromethyl)phenyl)furan-2-carboxamide] |
| 6.42 | O=C(Nc1ccc(N2C(=O)N[C@@H](c3ccccc3)C2=O)c(Cl)c1)c1ccccn1 [Example 1.3.56, (S)-N-(3-chloro-4-(2,5-dioxo-4-phenylimidazolidin-1-yl)phenyl)picolinamide] |
| 6.70 | CC(C)(C)[C@@H]1NC(=O)N(c2ccc(NC(=O)c3ccccn3)cc2Cl)C1=O [Example 1.3.57, (S)-N-(4-(4-(tert-butyl)-2,5-dioxoimidazolidin-1-yl)-3-chlorophenyl)picolinamide] |
| 6.70 | CC(C)N1C(=O)N(c2ccc(NC(=O)c3ccccn3)cc2Cl)C(=O)[C@@H]1C(C)(C)C [Example 1.3.58, (S)-N-(4-(4-(tert-butyl)-3-isopropyl-2,5-dioxoimidazolidin-1-yl)-3-chlorophenyl)picolinamide] |
| 5.82 | CC(C)[C@]1(C)NC(=O)N(c2ccc(NC(=O)c3ccccn3)cc2Cl)C1=O [Example 1.3.59, (S)-N-(3-chloro-4-(4-isopropyl-4-methyl-2,5-dioxoimidazolidin-1-yl)phenyl)picolinamide] |
| 5.44 | CC(C)[C@@]1(C)NC(=O)N(c2ccc(NC(=O)c3ccccn3)cc2Cl)C1=O [Example 1.3.60, (R)-N-(3-chloro-4-(4-isopropyl-4-methyl-2,5-dioxoimidazolidin-1-yl)phenyl)picolinamide] |
| 6.47 | C[C@@]1(Cc2ccc(F)cc2)NC(=O)N(c2ccc(NC(=O)c3ccccn3)cc2Cl)C1=O [Example 1.3.61, (S)-N-(3-chloro-4-(4-(4-fluorobenzyl)-4-methyl-2,5-dioxoimidazolidin-1-yl)phenyl)picolinamide] |
